Data as given in PMC4067742, “Direct Observations of Amyloid β Self-Assembly in Live Cells Provide Insights into Differences in the Kinetics of Aβ(1–40) and Aβ(1–42) Aggregation” (Chemistry & Biology, 2014).

Test system: SH-SY5Y cells
Assay: dSTORM superresolution imaging of intracellular aggregates
Assay type: cell-based, human
Details: 500 nM monomers, fixed cells; for average size of intracellular aggregates (diameter / longest dimension) after 24 hr: pixel counting in dSTORM images, only aggregates above resolution limit (55–70 nm), n = 18–27; for change in size of intracellular aggregates between 24 and 48 hr: pixel counting in dSTORM images (Figure 5B)
Description: To further investigate the nature of the intracellular Aβ(1–40) and Aβ(1–42) aggregates, we used superresolution fluorescence microscopy to analyze their physical appearance. […] Thus, we treated SH-SY5Y cells with 500 nM of ^HF647Aβ(1–40) or 500 nM of ^HF647Aβ(1–42) monomers for periods of 24 and 48 h. Thereafter, the cells were fixed, immersed in switching buffer, and imaged at single-molecule resolution using a homebuilt total internal reflection fluorescence (TIRF) microscope operated under highly inclined illumination ([Tokunaga et al., 2008]) to obtain images from an image plane within the cells. Superresolved images (Figure 5A) of the intracellular ^HF647Aβ(1–40) and ^HF647Aβ(1–42) aggregates were then reconstructed as described in the Experimental Procedures. dSTORM results in a dramatic increase in resolution compared with conventional confocal imaging (Figure S4). In this case, the lateral resolution of our images was calculated to be 55–70 nm using a blind assessment density estimation approach ([Rees et al., 2012]). Features larger than the lateral resolution limit can, therefore, be interpreted with confidence as having approximately the correct size and shape. […] The ^HF647Aβ(1–42) aggregates, by contrast, appear to include both spherical and elongated species, with an average size along their longest dimension of approximately 225 nm (Figure 5B). The observation that, after 24 hr, ^HF647Aβ(1–42) forms intracellular species that are larger than those formed by ^HF647Aβ(1–40) is consistent with the differences in their mean fluorescence lifetimes (Figures 4C, 4D, and 5C). […] Comparison of the FLIM and dSTORM data recorded after 24 and 48 hr indicates a qualitative relationship between aggregate size and HF488 fluorescence lifetime (Figures 5B and 5C), supporting the conclusion that the fluorescence lifetime reflects the nature and abundance of the Aβ amyloid aggregates formed in vivo.
Human neuroblastoma cells (SH-SY5Y) were grown in 1:1 minimal essential medium (MEM) and nutrient mixture F-12 Ham (Sigma-Aldrich) with sodium bicarbonate, including 15% heat-inactivated fetal bovine serum, 1% MEM non-essential amino acids, 2 mM […], 1% penicillin-streptomycin (10,000 U/ml K1), and 0.1% fungizone (amphotericin B, […] K1) (Life Technologies). Cells were plated 1 day prior to experiments in glass-bottomed culture dishes (MatTek) at a density of 50,000 cells/14-mm dish. […]
All dSTORM experiments were carried out using HF647-labeled peptides. Fluorescence images for dSTORM were taken on a Nikon Te-300 Eclipse inverted wide field microscope, with a 100×, 1.49 numerical aperture TIRF objective lens, an Andor iXon 887DV electron-multiplying charge-coupled device camera, and a Semrock fluorescence filter set (LF405/488/561/635-A-00). […]

| Substance | average size of intracellular aggregates (diameter / longest dimension) after 24 hr | change in size of intracellular aggregates between 24 and 48 hr |
| --- | --- | --- |
| ^HF647Aβ(1–40): Synthetic amyloid β (1–40) peptide labeled at the N terminus with Hilyte Fluor 647, purchased from Anaspec | approximately 160 nm | appear to have increased in size |
| ^HF647Aβ(1–42): Synthetic amyloid β (1–42) peptide labeled at the N terminus with Hilyte Fluor 647, purchased from Anaspec | approximately 225 nm | no significant change in the size |
